# Reference: patent publication US20220144853A1, “IMIDAZOLINE DERIVATIVES AS CXCR4 MODULATORS” (Université de Paris, priority 2019, published 2022)
# Counter-ions that a name gives are not always drawn.
# System: IFN production by activated PBMCs
# Assay: IFN production by R848-activated PBMCs from healthy donors, twINNE reporter cell line
# Type: cell-based, human
# Details: Homo sapiens, PBMC, means of two results over 2 healthy donors, R848 5 μg/mL, IT1t: mean over all experiments, read-out: IC50 of anti-inflammatory activity (IFN production)
# Protocol: 2) The blood from healthy donors was also obtained from “Etablissement Français du Sang” (convention #19/EFS/029), Paris, France.
# In vitro experiments were performed using human peripheral blood mononuclear cells (PBMCs) isolated by density centrifugation from peripheral blood leukocyte separation medium, lymphoprep (Stemcell Technologies).
# PBMCs were cultured in RPMI 1640 (Sigma-Aldrich, MO, USA) containing 10% heat-inactivated fetal bovine serum (Sigma-Aldrich, MO, USA) at 37° C./5% CO2.
# 2) The PBMCs used herein were prepared as described in part A “immune cells preparation”, section 2) above. PBMCs were seeded at 4.10^6/mL. […] Cells were then stimulated with the TLR7/8 agonist resiquimod—R848 (Sigma-Aldrich, MO, USA) at 5 μg/mL.
# 2) To quantify the secretion of functional IFN, a biological assay based on a stable cell line where luciferase reporter gene is controlled by five Interferon-Stimulated Response Elements (twINNE cell line) was used. It is important to note that the twINNE cell line is the same as the above mentioned STING-37 cell line but with constitutively expressed nanoluciferase. First, supernatants of R848-stimulated PBMCs (see part B, section 2) above) were harvested after 24 h of stimulation and frozen at −20° C. for storage. Then, supernatants were dispensed in culture wells of a 96-well plate containing 35.103 twINNE cells per well in Dulbecco's Modified Eagle's Medium supplemented with 10% Foetal Bovine Serum, 100 U/mL Penicillin and 100 μg/mL Streptomycin (1% Pen-Strep) and 1 mM glutamine (Sigma-Aldrich, MO, USA) at 37° C./5% […]. After 24 h of culture, luciferase activity was determined by adding 60 μL of Bright-Go reagents (Promega, Wisconsin, USA) to culture wells and measuring bioluminescence with EnSpire Multimode Plate Reader (PerkinElmer, Massachusetts, USA). When stated, for IC50 calculation, dose-response curves fitted using the nonlin fit (variable slope) analysis in GraphPad Prism software (GraphPad Software, California, USA).
row,SMILES,IC50
1,"C1=C(CSC2=N[C@@H]3CCCC[C@H]3N2)N2CC(Cc3ccccc3)N=C2S1 (stereo partly drawn) [Example 61, 6-benzyl-3-((((3aR,7aR)-3a,4,5,6,7,7a-hexahydro-1H-benzo[d]imidazol-2-yl)thio)methyl)-5,6-dihydroimidazo[2,1-b]thiazole dihydrochloride]",≤ 10 µM
2,"C1=C(CSC2=NCCN2)N2CCCCN=C2S1 [Example 27, 3-(((4,5-dihydro-1H-imidazol-2-yl)thio)methyl)-5,6,7,8-tetrahydrothiazolo[3,2-a][1,3]diazepine dihydrochloride]",≥ 31 µM
3,"CC1(C)CN2C(CSC3=NCCCCN3)=CSC2=N1 [Example 12, 6,6-dimethyl-3-(((4,5,6,7-tetrahydro-1H-1,3-diazepin-2-yl)thio)methyl)-5,6-dihydroimidazo[2,1-b]thiazole dihydrochloride]",≥ 31 µM
4,"C1=C(CSC2=N[C@H]3COC[C@H]3N2)N2C(=N[C@@H]3COC[C@@H]32)S1 (mixture of isomers) [Example 36, mixture of (4aS,7aR)-3-((((3aS,6aR)-3a,4,6,6a-tetrahydro-1H-furo[3,4-d]imidazol-2-yl)thio)methyl)-4a,5,7,7a-tetrahydrofuro[3′,4′:4,5]imidazo[2,1-b]thiazole dihydrochloride and (4aR,7aS)-3-((((3aR,6aS)-3a,4,6,6a-tetrahydro-1H-furo[3,4-d]imidazol-2-yl)thio)methyl)-4a,5,7,7a-tetrahydrofuro[3′,4′: 4,5]imidazo[2,1-b]thiazole dihydrochloride]",≥ 31 µM
5,"C1=C(CSC2=N[C@@H]3CCCC[C@H]3N2)N2CCN=C2S1 [Example 44, 3-((((3aR,7aR)-3a,4,5,6,7,7a-hexahydro-1H-benzo[d]imidazol-2-yl)thio)methyl)-5,6-dihydroimidazo[2,1-b]thiazole dihydrochloride]",≤ 10 µM
6,"CC1(C)CN2C(CSC3=N[C@@H]4CCCC[C@@H]4N3)=CSC2=N1 [Example 5, 3-((((3R,7aS)-3a,4,5,6,7,7a-hexahydro-1H-benzo[d]imidazol-2-yl)thio)methyl)-6,6-dimethyl-5,6-dihydroimidazo[2,1-b]thiazole dihydrochloride]",10 to 31 µM
7,"CCCCC1CN=C(SCC2=CSC3=NCCN23)N1 (stereo not shown) [Example 30, 3-(((5-butyl-4,5-dihydro-1H-imidazol-2-yl)thio)methyl)-5,6-dihydroimidazo[2,1-b]thiazole dihydrochloride]",≤ 10 µM
8,"CC1(C)CN=C(SCCn2ccnc2)N1 [Example 47, 1-(2-((5,5-dimethyl-4,5-dihydro-1H-imidazol-2-yl)thio)ethyl)-1H-imidazole dihydrochloride]",≥ 31 µM
9,"CC1(C)CN=C(SCCCc2cccnc2)N1 [Example 31, 3-(3-((5,5-dimethyl-4,5-dihydro-1H-imidazol-2-yl)thio)propyl)pyridine dihydrochloride]",≥ 31 µM
10,"CC1(C)CN2C(=N1)SCC2SC1=NCC(C)(C)N1 (stereo not shown) [Example 70, 3-((5,5-dimethyl-4,5-dihydro-1H-imidazol-2-yl)thio)-6,6-dimethyl-2,3,5,6-tetrahydroimidazo[2,1-b]thiazole dihydrochloride]",≥ 31 µM
11,"CC1(C)CN2C(CSC3=NC(C)(C)C(C)(C)N3)=CSC2=N1 [Example 16, 6,6-dimethyl-3-(((4,4,5,5-tetramethyl-4,5-dihydro-1H-imidazol-2-yl)thio)methyl)-5,6-dihydroimidazo[2,1-b]thiazole dihydrochloride]",≥ 31 µM
12,"CC1(C)CN=C(SCCCn2ccnc2)N1 [Example 38, 1-(3-((5,5-dimethyl-4,5-dihydro-1H-imidazol-2-yl)thio)propyl)-1H-imidazole dihydrochloride]",≥ 31 µM
13,"CC1(C)CN=C(SCC2=CSC3=NCCN23)N1 [Example 21, 3-(((5,5-dimethyl-4,5-dihydro-1H-imidazol-2-yl)thio)methyl)-5,6-dihydroimidazo[2,1-b]thiazole dihydrochloride]",10 to 31 µM
14,"CCCCC1CN=C(SCC2=CSC3=N[C@H]4CCCCC4N23)N1 (mixture of isomers) [Example 54, trans-3-(((5-butyl-4,5-dihydro-1H-imidazol-2-yl)thio)methyl)-4a,5,6,7,8,8a-hexahydrobenzo[4,5]imidazo[2,1-b]thiazole dihydrochloride]",≤ 10 µM
15,"C1=C(CSC2=NCCCN2)N2CCN=C2S1 [Example 35, 3-(((1,4,5,6-tetrahydropyrimidin-2-yl)thio)methyl)-5,6-dihydroimidazo[2,1-b]thiazole dihydrochloride]",≥ 31 µM
16,"CC(C)C1CN2C(CSC3=NCC(C)(C)N3)=CSC2=N1 (stereo not shown) [Example 52, 3-(((5,5-dimethyl-4,5-dihydro-1H-imidazol-2-yl)thio)methyl)-6-isopropyl-5,6-dihydroimidazo[2,1-b]thiazole dihydrochloride]",10 to 31 µM
17,"C1=C(CSC2=NCC(Cc3ccccc3)N2)N2CC(Cc3ccccc3)N=C2S1 (stereo not shown) [Example 60, 6-benzyl-3-(((5-benzyl-4,5-dihydro-1H-imidazol-2-yl)thio)methyl)-5,6-dihydroimidazo[2,1-b]thiazole dihydrochloride]",≤ 10 µM
18,"CC1(C)CN2C(CSC3=NCC4CCCCC4N3)=CSC2=N1 (stereo not shown) [Example 40, 6,6-dimethyl-3-(((1,4,4a,5,6,7,8,8a-octahydroquinazolin-2-yl)thio)methyl)-5,6-dihydroimidazo[2,1-b]thiazole dihydrochloride]",≥ 31 µM
19,"CC1(C)CN=C2SC=C(CSC3=NCC(C)(C)N3)N2C1 [Example 34, 3-(((5,5-dimethyl-4,5-dihydro-1H-imidazol-2-yl)thio)methyl)-6,6-dimethyl-6,7-dihydro-5H-thiazolo[3,2-a]pyrimidine dihydrochloride]",≥ 31 µM
20,"CC1(C)CN2C(CSC3=NCC4(CCCCC4)N3)=CSC2=N1 [Example 39, 3-(((1,3-diazaspiro[4.5]dec-2-en-2-yl)thio)methyl)-6,6-dimethyl-5,6-dihydroimidazo[2,1-b]thiazole dihydrochloride]",10 to 31 µM
21,"C1=C(CSC2=NCCCN2)N2CCCCN=C2S1 [Example 37, 3-(((1,4,5,6-tetrahydropyrimidin-2-yl)thio)methyl)-5,6,7,8-tetrahydrothiazolo[3,2-a][1,3]diazepine dihydrochloride]",≥ 31 µM
22,"C1=C(CSC2=NCCN2)N2C(=N[C@H]3CCCCC32)S1 (mixture of isomers) [Example 59, trans-3-(((4,5-dihydro-1H-imidazol-2-yl)thio)methyl)-4a,5,6,7,8,8a-hexahydrobenzo[4,5]imidazo[2,1-b]thiazole dihydrochloride]",≤ 10 µM
23,"CCCCC1CN=C(SCC2=CSC3=NC(C)(C)CN23)N1 (stereo not shown) [Example 13, 3-(((5-butyl-4,5-dihydro-1H-imidazol-2-yl)thio)methyl)-6,6-dimethyl-5,6-dihydroimidazo[2,1-b]thiazole dihydrochloride]",≤ 10 µM
24,"C1=C(CSC2=NCC(Cc3ccccc3)N2)N2C(=N[C@H]3CCCCC32)S1 (mixture of isomers) [Example 55, trans-3-(((5-benzyl-4,5-dihydro-1H-imidazol-2-yl)thio)methyl)-4a,5,6,7,8,8a-hexahydrobenzo[4,5]imidazo[2,1-b]thiazole dihydrochloride]",≤ 10 µM
25,"CC1(C)CN=C(SCC2=CSC3=NC(c4ccccc4)CN23)N1 (stereo not shown) [Example 50, 3-(((5,5-dimethyl-4,5-dihydro-1H-imidazol-2-yl)thio)methyl)-6-phenyl-5,6-dihydroimidazo[2,1-b]thiazole dihydrochloride]",10 to 31 µM
